Measurements taken from PMC5295233, “Biochemical and Structural Insights into a Novel Thermostable β-1,3-Galactosidase from Marinomonas sp. BSi20414” (Marine Drugs, 2017).

System: T1, MaBGA (β-galactosidase from Marinomonas sp. BSi20414)
T1 construct: native enzyme purified from the wild-type strain (ammonium sulfate, HiTrap DEAE FF); GH42; catalytic Glu142 and Glu314; no tag
Assay: release of o-nitrophenol at […] nm, nonlinear Michaelis-Menten fit
Format: biochemical
Conditions: apparent Km; 50 mM PBS pH 7.0 (standard assay); ONPG 0.1-19 mM; temperature not given

Km: 14.2 mM
SMILES: O=[N+]([O-])c1ccccc1O[C@@H]1O[C@H](CO)[C@H](O)[C@H](O)[C@H]1O [ONPG, o-nitrophenyl-β-D-galactopyranoside]
